The values that follow come from ChEMBL document CHEMBL1250451, “Mechanistic insights into a Ca2+-dependent family of alpha-mannosidases in a human gut symbiont” (Nat Chem Biol, 2010).

Structures are written as SMILES.

Assay type in all cases: protein assay
For test [1], the target named is T1, Alpha-1,2-mannosidase (BT_2199) (Bacteroides thetaiotaomicron) (UniProt Q8A5N9).
T1 sequence (whole entry): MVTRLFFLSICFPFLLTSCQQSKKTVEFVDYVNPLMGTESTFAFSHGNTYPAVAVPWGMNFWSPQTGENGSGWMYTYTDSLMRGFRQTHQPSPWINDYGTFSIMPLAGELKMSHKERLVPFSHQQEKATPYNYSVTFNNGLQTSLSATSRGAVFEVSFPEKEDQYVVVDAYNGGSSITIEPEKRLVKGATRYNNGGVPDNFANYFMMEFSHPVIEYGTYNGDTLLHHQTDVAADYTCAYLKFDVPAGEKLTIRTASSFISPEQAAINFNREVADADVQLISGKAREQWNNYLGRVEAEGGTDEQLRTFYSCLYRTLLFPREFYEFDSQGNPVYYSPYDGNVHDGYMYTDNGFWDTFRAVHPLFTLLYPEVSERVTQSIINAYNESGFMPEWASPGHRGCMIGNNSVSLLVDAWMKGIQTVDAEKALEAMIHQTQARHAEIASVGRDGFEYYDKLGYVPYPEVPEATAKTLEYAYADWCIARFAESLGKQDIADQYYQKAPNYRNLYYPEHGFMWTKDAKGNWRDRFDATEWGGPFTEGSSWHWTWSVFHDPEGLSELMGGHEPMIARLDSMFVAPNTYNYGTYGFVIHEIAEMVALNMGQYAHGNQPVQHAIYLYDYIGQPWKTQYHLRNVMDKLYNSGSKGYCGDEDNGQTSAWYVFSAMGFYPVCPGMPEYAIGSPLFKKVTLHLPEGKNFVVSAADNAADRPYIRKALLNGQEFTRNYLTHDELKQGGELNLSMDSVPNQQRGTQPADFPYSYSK
The experiment in a line: Activity of Bacteroides thetaiotaomicron GH92 alpha-mannosidase 2199 assessed as recovery of enzyme activity at 1 mM in presence of 7 mM Ca(2+) ions and in presence of 5 mM EDTA in 100 mM pH 7 MOPS buffer relative to enzyme activity in presence of calcium.

Test [2] concerns the target T1, Alpha-1,2-mannosidase (BT_2199) (Bacteroides thetaiotaomicron). The experiment in a line: Activity of Bacteroides thetaiotaomicron GH92 alpha-mannosidase 2199 assessed as recovery of enzyme activity at 1 mM in presence of 7 mM Mg(2+) ions and in presence of 5 mM EDTA in 100 mM pH 7 MOPS buffer relative to enzyme activity in presence of calcium.
For test [3] the target is unchanged. The experiment in a line: Activity of Bacteroides thetaiotaomicron GH92 alpha-mannosidase 2199 assessed as recovery of enzyme activity at 1 mM in presence of 7 mM Co(2+) ions and in presence of 5 mM EDTA in 100 mM pH 7 MOPS buffer relative to enzyme activity in presence of calcium.
The target is the same in test [4]. The experiment in a line: Activity of Bacteroides thetaiotaomicron GH92 alpha-mannosidase 2199 assessed as recovery of enzyme activity at 1 mM in presence of 7 mM Sr(2+) ions and in presence of 5 mM EDTA in 100 mM pH 7 MOPS buffer relative to enzyme activity in presence of calcium.
Test [5] shares this target. The experiment in a line: Activity of Bacteroides thetaiotaomicron GH92 alpha-mannosidase 2199 assessed as recovery of enzyme activity at 1 mM in presence of 7 mM Mg(2+) ions and in presence of 5 mM EGTA in 100 mM pH 7 MOPS buffer relative to enzyme activity in presence of calcium.
For test [6], the target named is T2, Alpha-1,2-mannosidase (BT_3990) (Bacteroides thetaiotaomicron) (UniProt Q8A0N1).
T2 sequence (whole entry): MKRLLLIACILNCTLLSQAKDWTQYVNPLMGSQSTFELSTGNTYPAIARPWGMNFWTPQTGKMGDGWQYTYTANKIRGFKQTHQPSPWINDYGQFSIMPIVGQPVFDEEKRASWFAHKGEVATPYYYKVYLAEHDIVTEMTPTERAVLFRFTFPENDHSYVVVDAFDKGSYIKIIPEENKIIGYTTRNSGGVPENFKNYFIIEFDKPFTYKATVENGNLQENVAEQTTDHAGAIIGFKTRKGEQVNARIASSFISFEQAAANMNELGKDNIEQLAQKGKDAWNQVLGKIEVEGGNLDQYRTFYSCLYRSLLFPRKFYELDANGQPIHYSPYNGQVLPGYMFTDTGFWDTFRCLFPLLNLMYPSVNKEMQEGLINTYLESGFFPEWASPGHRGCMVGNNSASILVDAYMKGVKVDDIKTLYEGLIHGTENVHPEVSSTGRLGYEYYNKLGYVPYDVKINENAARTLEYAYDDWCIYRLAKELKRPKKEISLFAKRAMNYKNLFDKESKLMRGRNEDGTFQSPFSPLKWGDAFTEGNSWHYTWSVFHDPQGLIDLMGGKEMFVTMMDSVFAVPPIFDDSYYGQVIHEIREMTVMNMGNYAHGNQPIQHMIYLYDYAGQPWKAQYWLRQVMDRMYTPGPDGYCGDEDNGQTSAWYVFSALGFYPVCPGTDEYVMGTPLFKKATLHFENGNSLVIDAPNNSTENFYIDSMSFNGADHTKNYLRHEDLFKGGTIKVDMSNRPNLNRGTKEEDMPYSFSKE
The experiment in a line: Activity of Bacteroides thetaiotaomicron GH92 alpha-mannosidase 3990 assessed as recovery of enzyme activity at 1 mM in presence of 7 mM Zn(2+) ions and in presence of 5 mM EDTA in 100 mM pH 7 MOPS buffer relative to enzyme activity in presence of calcium.

The target in test [7] is T2, Alpha-1,2-mannosidase (BT_3990) (Bacteroides thetaiotaomicron). The experiment in a line: Activity of Bacteroides thetaiotaomicron GH92 alpha-mannosidase 3990 assessed as recovery of enzyme activity at 1 mM in presence of 7 mM Mg(2+) ions and in presence of 5 mM EDTA in 100 mM pH 7 MOPS buffer relative to enzyme activity in presence of calcium.
Test [8] shares this target. The test is described as follows: Activity of Bacteroides thetaiotaomicron GH92 alpha-mannosidase 3990 assessed as recovery of enzyme activity at 1 mM in presence of 7 mM Mn(2+) ions and in presence of 5 mM EDTA in 100 mM pH 7 MOPS buffer relative to enzyme activity in presence of calcium.
Test [9] has the same target. The experiment in a line: Activity of Bacteroides thetaiotaomicron GH92 alpha-mannosidase 3990 assessed as recovery of enzyme activity at 1 mM in presence of 7 mM V(3+) ions and in presence of 5 mM EDTA in 100 mM pH 7 MOPS buffer relative to enzyme activity in presence of calcium.
Test [10] has the same target. The experiment in a line: Activity of Bacteroides thetaiotaomicron GH92 alpha-mannosidase 3990 assessed as recovery of enzyme activity at 1 mM in presence of 7 mM Ca(2+) ions and in presence of 5 mM EGTA in 100 mM pH 7 MOPS buffer relative to enzyme activity in presence of calcium.
For test [11] the target is unchanged. The test is described as follows: Activity of Bacteroides thetaiotaomicron GH92 alpha-mannosidase 3990 assessed as recovery of enzyme activity at 1 mM in presence of 7 mM Mn(2+) ions and in presence of 5 mM EGTA in 100 mM pH 7 MOPS buffer relative to enzyme activity in presence of calcium.

For the compound `O=[N+]([O-])c1ccc(O[C@H]2O[C@H](CO)[C@@H](O)[C@H](O)[C@@H]2O)cc1`, the Activity came out at 100% in [1]; 0% in test [2]; 7% in [3]; 31% in [4]; 0% in [5]; 0% in test [6]. For the same compound, the Activity in [7] came to 0%; in test [8], 13%; in [9], 0%; in [10] it was 100%; in [11], 6%.
